The subject of the data set is actinic keratosis lesions. The experiment in a line: Randomized, double-blind study, eight-week treatment period, topical cream on actinic keratosis lesions on the head. The class given is in vivo, human. Particulars: formulation with about 0.3 wt-% compound, twice per week, about 8 weeks, compared to other formulations or regimens. The method, then:
A randomized, double-blind study was performed to evaluate single and multi-weekly doses of the formulations prepared above topically applied to actinic keratosis lesions on the head.
Otherwise healthy white (n=280) subjects (15% female, 85% male) ranging in ages 38 to 89 years of age (median age of 66.5), inclusive, with actinic keratosis lesions on the head were enrolled in the study. […] The actinic keratosis lesions areas were on the scalp (36%) and face (64%).
The study included an eight-week treatment period followed by an eight-week post-treatment period. […]
Subjects completed interval visits at treatment initiation, 1, 2, 4, and 8 weeks after treatment was initiated and at four and eight-weeks after the end of treatment. Subjects were monitored for erythema and other treatment site conditions during the entire 16 weeks of the study. Erythema, as assessed by study investigators, was defined as intense, moderate, mild, or no redness of the skin at the treatment site and given an intensity score of severe, moderate, mild, or none, respectively.
At the eight-week post-treatment visit, the treatment area was clinically evaluated for actinic keratosis lesions. Efficacy was measured as complete clearance of actinic keratosis lesions and partial clearance of actinic keratosis lesions at the eight-week post-treatment visit. […]

`Cc1nc2c(N)nc3cccnc3c2n1CC(C)C` [2-methyl-1-(2-methylpropyl)-1H-imidazo[4,5-c][1,5]naphthyridin-4-amine]: the side effects entry is “a low level of side effects”.

For the origin of these results see patent US8354424B2, “Method of treating actinic keratosis” (Medicis Pharmaceutical Corporation, priority 2005, dated 2013).
